The source of these data is PubChem BioAssay (NCI).

Some test systems named below: SF-295 CNS; LOX IMVI melanoma; PC-3 prostate; SF-539 CNS; U251 CNS; OVCAR-5 ovarian; HCT-116 colon; HOP-92 NSCLC; NCI-H226 lung; UACC-257 melanoma.
Common to all, as to assay: NCI-60 cell line screen, 48 h

The structures appear in SMILES notation.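 Step 1: Grow cells in 96-well plates. Step 2: Expose to compound for 48 hours at 5 concentrations. Step 3: Interpolate endpoints linearly; if unreached, use highest concentration. The concentration for 50% growth inhibition is given as GI50. Definition used: TGI = concentration required for complete inhibition of growth.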

As for `C=C1C(O)C2CC(C)(CO)C(=O)C2=C(CC(C)C)C12CC2` (stereo not given), the GI50 was 57.1 µM in the assay with SF-295 CNS; 57.9 µM in the assay on LOX IMVI melanoma; 56 µM with PC-3 prostate; 51.6 µM in the assay on SF-539 CNS; 77 µM with U251 CNS; over 100 µM with OVCAR-5 ovarian. Also, the GI50 was 38.7 µM in the assay with HCT-116 colon, 94.6 µM in the assay on HOP-92 NSCLC, over 100 µM with NCI-H226 lung and 52.1 µM in the assay on UACC-257 melanoma. Moreover, the TGI in the assay with SF-295 CNS, in the assay on LOX IMVI melanoma, with PC-3 prostate, in the assay with SF-539 CNS, in the assay with U251 CNS and with OVCAR-5 ovarian was over 100 µM throughout. Moreover, the TGI with HCT-116 colon, in the assay with HOP-92 NSCLC, in the assay on NCI-H226 lung and in the assay on UACC-257 melanoma was over 100 µM in each case.
In the case of `O=C(NCC(F)(F)F)Nc1cccc(-c2cnc3cc(-c4ccc(F)cc4)ccn23)c1`, the GI50 with SF-295 CNS is 0.737 µM; in the assay with LOX IMVI melanoma, 0.727 µM; in the assay with PC-3 prostate, 2.22 µM; with SF-539 CNS it was 0.522 µM; in the assay with U251 CNS, 0.622 µM; in the assay on OVCAR-5 ovarian, 8.33 µM. Also, the GI50 with HCT-116 colon is 0.539 µM; with HOP-92 NSCLC, 2.15 µM; in the assay with NCI-H226 lung, 3.99 µM; in the assay with UACC-257 melanoma, 14.2 µM. In addition, the TGI in the assay on SF-295 CNS was 6.97 µM; in the assay with LOX IMVI melanoma, 11.2 µM; in the assay with PC-3 prostate, over 100 µM; with SF-539 CNS it was 3.5 µM; in the assay on U251 CNS, 20.8 µM; in the assay on OVCAR-5 ovarian it was over 86.3 µM. For the same compound, the TGI in the assay with HCT-116 colon was 14.7 µM; with HOP-92 NSCLC, over 100 µM; in the assay with NCI-H226 lung it was over 100 µM; with UACC-257 melanoma it was 65.5 µM.
Take `CNCCCNc1nc2ccccc2c2c(=O)c3cc(OC)ccc3sc12`: the GI50 in the assay on SF-295 CNS was 1.82 µM; in the assay with LOX IMVI melanoma, 1.57 µM; with PC-3 prostate it was 1.74 µM; in the assay with SF-539 CNS, 1.7 µM; in the assay on U251 CNS, 1.81 µM; with OVCAR-5 ovarian, 1.67 µM. For the same compound, the GI50 with HCT-116 colon was 1.78 µM; with HOP-92 NSCLC, 1.35 µM; in the assay with NCI-H226 lung, 1.8 µM; in the assay on UACC-257 melanoma, 1.99 µM. Further, the TGI with SF-295 CNS is 3.34 µM; in the assay on LOX IMVI melanoma it was 2.93 µM; in the assay on PC-3 prostate, 3.45 µM; with SF-539 CNS it was 3.1 µM; with U251 CNS it was 3.71 µM; in the assay on OVCAR-5 ovarian, 3.08 µM. The TGI came out at 3.52 µM with HCT-116 colon, 5.67 µM in the assay on HOP-92 NSCLC, 3.9 µM with NCI-H226 lung and 4.15 µM with UACC-257 melanoma.
As to `COC(=O)Nc1nc2ccccc2[nH]1`, the TGI in the assay on SF-295 CNS is 32.9 µM; in the assay with LOX IMVI melanoma, over 100 µM; in the assay on PC-3 prostate, over 100 µM; in the assay on SF-539 CNS, 50.5 µM; in the assay on U251 CNS, over 100 µM; in the assay with OVCAR-5 ovarian, over 100 µM. The TGI in the assay with HCT-116 colon, in the assay with HOP-92 NSCLC, with NCI-H226 lung and with UACC-257 melanoma was over 100 µM throughout.
In the case of `COc1ccc(C(=O)c2cc(C)c(OC)c(C)c2)c(OC)c1NC(C)=O`, the GI50 was 0.046 µM with SF-295 CNS; 0.526 µM in the assay on LOX IMVI melanoma; 0.0776 µM in the assay on PC-3 prostate; 0.214 µM with SF-539 CNS; 0.353 µM with U251 CNS; 0.191 µM in the assay with OVCAR-5 ovarian. Further, the GI50 in the assay with HCT-116 colon was 0.439 µM; with HOP-92 NSCLC, 1.02 µM; in the assay with NCI-H226 lung, 0.102 µM; in the assay with UACC-257 melanoma, over 100 µM. Also, the TGI was over 100 µM with SF-295 CNS; over 100 µM in the assay with LOX IMVI melanoma; over 100 µM in the assay on PC-3 prostate; 0.848 µM with SF-539 CNS; over 100 µM in the assay on U251 CNS; over 100 µM in the assay on OVCAR-5 ovarian. For the same compound, the TGI was over 100 µM in the assay with HCT-116 colon, over 100 µM with HOP-92 NSCLC, 1.58 µM in the assay on NCI-H226 lung and over 100 µM in the assay on UACC-257 melanoma.
For the compound `O=C(CN(/C=C/C(=O)C(F)(F)F)c1ccc(Cl)cc1)c1ccc(Cl)c(Cl)c1`, the GI50 with SF-295 CNS is 4.98 µM; in the assay with LOX IMVI melanoma, 4.13 µM; with PC-3 prostate, 4.25 µM; in the assay with SF-539 CNS it was 20.1 µM; in the assay with U251 CNS, 5.37 µM; with OVCAR-5 ovarian, 13.4 µM. Besides, the GI50 with HCT-116 colon was 3.54 µM; in the assay on HOP-92 NSCLC it was 3.21 µM; in the assay with NCI-H226 lung, 12.5 µM; in the assay on UACC-257 melanoma, 14 µM. Moreover, the TGI amounted to 17.4 µM with SF-295 CNS; 16.6 µM in the assay on LOX IMVI melanoma; 16.7 µM with PC-3 prostate; 38 µM in the assay on SF-539 CNS; 16.8 µM with U251 CNS; 27.1 µM in the assay on OVCAR-5 ovarian. Further, the TGI came out at 13.2 µM with HCT-116 colon, 14.5 µM with HOP-92 NSCLC, 30.1 µM in the assay on NCI-H226 lung and 30.2 µM in the assay on UACC-257 melanoma.
